This note sets out measurements from ChEMBL document CHEMBL1909046, “DrugMatrix in vitro pharmacology data”.

The target of experiment [1] is Tyrosine-protein kinase Fyn (Homo sapiens, UniProt P06241). Nature of the experiment: biochemical. In kind it is cell-based, Insect cells. The conditions noted are these: insect cells.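 Note: enzymatic inhibition of Fyn kinase activity measured with Poly(Glu:Tyr) as the phosphorylation substrate; in other assays of this panel Not Active means under 50% inhibition at 10 µM.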
Sequence of Tyrosine-protein kinase Fyn (P06241 whole entry): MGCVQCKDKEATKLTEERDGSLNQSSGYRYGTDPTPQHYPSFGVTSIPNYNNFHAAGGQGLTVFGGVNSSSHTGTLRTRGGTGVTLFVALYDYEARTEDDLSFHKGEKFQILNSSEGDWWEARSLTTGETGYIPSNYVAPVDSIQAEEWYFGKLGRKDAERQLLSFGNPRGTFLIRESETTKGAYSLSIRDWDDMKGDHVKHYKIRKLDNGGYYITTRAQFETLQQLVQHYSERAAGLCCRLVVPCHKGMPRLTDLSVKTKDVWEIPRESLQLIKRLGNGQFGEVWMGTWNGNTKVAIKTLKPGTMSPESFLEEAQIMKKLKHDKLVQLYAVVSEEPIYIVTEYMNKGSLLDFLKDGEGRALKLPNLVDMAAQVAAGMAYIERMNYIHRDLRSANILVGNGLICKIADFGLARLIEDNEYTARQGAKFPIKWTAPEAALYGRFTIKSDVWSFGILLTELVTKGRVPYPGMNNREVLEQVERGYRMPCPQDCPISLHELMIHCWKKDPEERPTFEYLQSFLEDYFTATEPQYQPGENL
Experiment [2] concerns the target T1, 3-hydroxy-3-methylglutaryl-coenzyme A reductase (Homo sapiens, UniProt P04035).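 Note: enzyme inhibition assay of HMG-CoA reductase using radiolabeled [14C]HMG-CoA as substrate; in other assays of this panel Not Active means under 50% inhibition at 10 µM.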
T1 sequence (P04035 whole entry): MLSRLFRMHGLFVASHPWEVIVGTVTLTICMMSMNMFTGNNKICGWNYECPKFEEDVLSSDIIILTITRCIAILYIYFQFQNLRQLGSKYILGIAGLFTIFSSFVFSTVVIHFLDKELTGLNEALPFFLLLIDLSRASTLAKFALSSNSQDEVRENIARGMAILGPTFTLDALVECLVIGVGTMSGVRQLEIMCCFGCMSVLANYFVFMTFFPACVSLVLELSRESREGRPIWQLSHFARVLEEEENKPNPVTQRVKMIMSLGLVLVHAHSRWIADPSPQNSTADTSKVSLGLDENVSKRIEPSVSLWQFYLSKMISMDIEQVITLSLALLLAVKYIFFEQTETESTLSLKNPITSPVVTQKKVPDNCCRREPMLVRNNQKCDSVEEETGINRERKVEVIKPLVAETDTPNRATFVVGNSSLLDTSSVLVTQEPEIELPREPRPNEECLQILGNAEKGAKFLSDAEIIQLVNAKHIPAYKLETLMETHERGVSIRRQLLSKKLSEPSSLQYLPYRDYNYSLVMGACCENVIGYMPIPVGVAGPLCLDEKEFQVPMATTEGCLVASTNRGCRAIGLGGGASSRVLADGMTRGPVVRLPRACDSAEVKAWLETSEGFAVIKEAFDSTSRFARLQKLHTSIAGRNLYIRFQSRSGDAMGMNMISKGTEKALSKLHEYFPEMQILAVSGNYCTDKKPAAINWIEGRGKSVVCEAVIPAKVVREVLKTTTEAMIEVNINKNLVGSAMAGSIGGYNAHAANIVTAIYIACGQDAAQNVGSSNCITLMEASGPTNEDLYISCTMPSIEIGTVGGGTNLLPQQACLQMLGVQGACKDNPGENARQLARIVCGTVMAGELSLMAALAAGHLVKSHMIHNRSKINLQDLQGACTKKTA
On the set-up: species or system Escherichia coli.

In the next experiment the target is Glycine receptor (Rattus norvegicus, UniProt P22771+P24524+P07727+P20781). Type of experiment: cell membranes, Wistar, Spinal cord, Membrane. Note: in other assays of this panel Not Active means under 50% inhibition at 10 µM.
The target of experiment [3] is T2, Type-2 angiotensin II receptor (Homo sapiens, UniProt P50052). Note: in other assays of this panel Not Active means under 50% inhibition at 10 µM.
T2 sequence (P50052 whole entry): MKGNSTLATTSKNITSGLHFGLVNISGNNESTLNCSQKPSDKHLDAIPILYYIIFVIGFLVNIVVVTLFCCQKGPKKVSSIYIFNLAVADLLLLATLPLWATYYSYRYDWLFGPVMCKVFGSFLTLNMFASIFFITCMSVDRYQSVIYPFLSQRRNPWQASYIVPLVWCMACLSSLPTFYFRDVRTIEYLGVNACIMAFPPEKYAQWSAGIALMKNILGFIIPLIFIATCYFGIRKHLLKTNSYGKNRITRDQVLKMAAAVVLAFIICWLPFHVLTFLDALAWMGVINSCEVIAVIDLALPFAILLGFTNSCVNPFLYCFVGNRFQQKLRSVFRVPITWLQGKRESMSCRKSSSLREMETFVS
Type of experiment: cell-based. To be noted: cho-k1.

For experiment [4], the target named is T3, Alpha-2C adrenergic receptor (Homo sapiens, UniProt P18825).
T3 sequence (P18825 whole entry): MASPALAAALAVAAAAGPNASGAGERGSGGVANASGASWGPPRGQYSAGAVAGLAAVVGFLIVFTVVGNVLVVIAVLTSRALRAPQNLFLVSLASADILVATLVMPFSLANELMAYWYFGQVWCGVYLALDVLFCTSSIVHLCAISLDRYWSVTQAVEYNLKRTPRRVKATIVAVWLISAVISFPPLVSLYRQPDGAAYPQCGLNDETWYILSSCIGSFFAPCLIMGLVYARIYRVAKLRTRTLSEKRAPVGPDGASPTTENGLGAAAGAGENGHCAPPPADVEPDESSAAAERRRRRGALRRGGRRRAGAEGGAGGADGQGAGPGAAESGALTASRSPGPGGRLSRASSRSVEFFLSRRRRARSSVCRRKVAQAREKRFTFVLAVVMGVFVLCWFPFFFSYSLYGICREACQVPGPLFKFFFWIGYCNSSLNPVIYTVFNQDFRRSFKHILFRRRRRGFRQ
The experiment is described as follows: DRUGMATRIX: Adrenergic Alpha-2C radioligand binding (ligand: [3H] MK-912). For IC50: call rule not given here. In kind it is cell membranes, Sf9, Membrane.

For experiment [5], the target named is Receptor tyrosine-protein kinase erbB-2 (Homo sapiens, UniProt P04626). Nature of the experiment: biochemical. Type of experiment: cell-based, Insect cells. The conditions noted are these: insect cells.
Sequence of Receptor tyrosine-protein kinase erbB-2 (P04626 whole entry): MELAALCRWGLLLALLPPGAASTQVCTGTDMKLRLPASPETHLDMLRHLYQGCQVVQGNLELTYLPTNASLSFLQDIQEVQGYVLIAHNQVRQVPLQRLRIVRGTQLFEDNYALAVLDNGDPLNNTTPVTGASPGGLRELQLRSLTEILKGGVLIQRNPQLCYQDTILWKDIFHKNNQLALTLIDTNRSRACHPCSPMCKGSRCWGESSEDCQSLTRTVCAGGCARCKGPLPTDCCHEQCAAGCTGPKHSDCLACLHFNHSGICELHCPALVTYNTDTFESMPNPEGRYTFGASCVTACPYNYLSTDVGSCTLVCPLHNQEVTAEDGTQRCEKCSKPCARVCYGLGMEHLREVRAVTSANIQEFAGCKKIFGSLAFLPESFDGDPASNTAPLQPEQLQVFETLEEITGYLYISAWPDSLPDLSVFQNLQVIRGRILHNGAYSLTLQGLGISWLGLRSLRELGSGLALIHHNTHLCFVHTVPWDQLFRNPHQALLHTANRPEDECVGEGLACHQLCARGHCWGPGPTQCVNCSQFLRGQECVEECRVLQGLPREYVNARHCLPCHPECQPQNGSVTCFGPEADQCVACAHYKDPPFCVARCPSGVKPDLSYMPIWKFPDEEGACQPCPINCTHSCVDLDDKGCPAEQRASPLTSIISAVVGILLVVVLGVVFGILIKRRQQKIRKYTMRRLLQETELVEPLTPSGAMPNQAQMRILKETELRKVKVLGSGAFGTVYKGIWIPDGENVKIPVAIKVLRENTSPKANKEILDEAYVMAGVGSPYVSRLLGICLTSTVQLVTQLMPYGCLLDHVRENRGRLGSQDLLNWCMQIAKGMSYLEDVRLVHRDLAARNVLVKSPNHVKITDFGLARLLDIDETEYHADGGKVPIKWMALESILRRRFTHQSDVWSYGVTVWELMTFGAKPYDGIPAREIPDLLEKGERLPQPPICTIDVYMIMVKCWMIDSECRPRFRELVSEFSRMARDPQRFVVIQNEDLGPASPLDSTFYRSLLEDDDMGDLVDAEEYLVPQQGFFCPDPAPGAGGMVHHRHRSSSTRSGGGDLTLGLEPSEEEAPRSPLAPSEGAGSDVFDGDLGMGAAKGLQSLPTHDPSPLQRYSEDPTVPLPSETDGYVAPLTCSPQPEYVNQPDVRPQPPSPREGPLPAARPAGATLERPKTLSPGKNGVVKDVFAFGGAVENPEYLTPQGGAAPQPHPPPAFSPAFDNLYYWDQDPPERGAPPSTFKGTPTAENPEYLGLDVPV
For experiment [6], the target named is Platelet-activating factor receptor (Homo sapiens, UniProt P25105). Type of experiment: tissue-based. Note: in other assays of this panel Not Active means under 50% inhibition at 10 µM.
Sequence of Platelet-activating factor receptor (P25105 whole entry): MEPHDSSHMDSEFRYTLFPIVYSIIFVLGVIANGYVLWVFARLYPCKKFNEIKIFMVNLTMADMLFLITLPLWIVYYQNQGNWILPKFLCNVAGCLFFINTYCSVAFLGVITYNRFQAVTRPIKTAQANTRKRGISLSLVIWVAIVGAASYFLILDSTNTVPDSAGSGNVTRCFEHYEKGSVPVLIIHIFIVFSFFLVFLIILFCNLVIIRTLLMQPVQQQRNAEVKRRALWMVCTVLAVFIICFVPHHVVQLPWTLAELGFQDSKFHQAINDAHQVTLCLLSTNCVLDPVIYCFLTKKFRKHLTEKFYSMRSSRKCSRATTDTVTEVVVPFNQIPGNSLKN

In the case of `CC(C)NCC(O)c1ccc(O)c(O)c1` (configuration not stated) [ISOPROTERENOL], the IC50 result (in experiment [1]; in experiment [2]; against Glycine receptor; in experiment [3]; in experiment [4] (sf9); in experiment [5]) was “Not Active” in each case. For the same compound, the IC50 result in experiment [6] is recorded as “Not Active”.
With `CNC1(c2ccccc2Cl)CCCCC1=O` (configuration not stated) [KETAMINE], the IC50 result (in experiment [1]; in experiment [2]; at Glycine receptor; in experiment [3]; in experiment [4] (sf9); in experiment [5]) was “Not Active” each time. In addition, the IC50 entry in experiment [6] is recorded as “Not Active”.
Consider `N#Cc1ccc(C(c2ccc(C#N)cc2)n2cncn2)cc1` [LETROZOLE], for which the IC50 entry (in experiment [1]; in experiment [2]; against Glycine receptor; in experiment [3]; in experiment [4] (sf9); in experiment [5]) was “Not Active” in each case. In experiment [6], the IC50 result is “Not Active”.
With `CCN1CCC[C@H]1CNC(=O)c1cc(S(N)(=O)=O)ccc1OC` [LEVOSULPIRIDE], the IC50 result (in experiment [1]; in experiment [2]; on Glycine receptor; in experiment [3]; in experiment [4] (sf9); in experiment [5]) was “Not Active” in each case. Besides, the IC50 result in experiment [6] was “Not Active”.
As to `CCN(CC)CC(=O)Nc1c(C)cccc1C` [LIDOCAINE], the IC50 entry (in experiment [1]; in experiment [2]; on Glycine receptor; in experiment [3]; in experiment [4] (sf9); in experiment [5]) was “Not Active” in each case. The IC50 entry in experiment [6] is recorded as “Not Active”.
For `O=C1Nc2ccc(Cl)cc2C(c2ccccc2Cl)=NC1O` (configuration not stated) [LORAZEPAM], the 50% inhibitory concentration (IC50) entry (in experiment [1]; in experiment [2]; at Glycine receptor; in experiment [3]; in experiment [4] (sf9); in experiment [5]) was “Not Active” each time. Further, in experiment [6], the IC50 result is “Not Active”.
Regarding `CO[C@@H]1[C@@H](OC)[C@H](C)[C@@](O)(CC(=O)O)O[C@H]1[C@H](C)[C@H]1O[C@@]2(CC[C@@](C)([C@H]3CC[C@@](C)([C@@H]4O[C@@H]([C@H]5O[C@](C)(O)[C@H](C)C[C@@H]5C)C[C@@H]4O[C@@H]4C[C@H](OC)[C@@H](OC)[C@H](C)O4)O3)O2)C[C@H](O)[C@H]1C` [MADURAMICIN ACID], the half-maximal inhibitory concentration (IC50) result in experiment [1] was “Not Active”; in experiment [2] it was “Not Active”; on Glycine receptor, “Not Active”; in experiment [3] it was “Not Active”; in experiment [4] (read-out: IC50), 1610 nM; in experiment [5], “Not Active”. Besides, the IC50 entry in experiment [6] was “Not Active”. Further, the Ki in experiment [4] (read-out: Ki) turned out to be 234 nM.
For `COc1c2occc2cc2ccc(=O)oc12` [METHOXSALEN], the IC50 result (in experiment [1]; in experiment [2]; against Glycine receptor; in experiment [3]; in experiment [4] (sf9); in experiment [5]) was “Not Active” in each case. For the same compound, in experiment [6], the IC50 entry is “Not Active”.
In the case of `C[C@H]1C[C@@H]2[C@H]([C@@H](O)C[C@@]3(C)[C@H]2CC[C@]3(O)C(=O)CO)[C@@]2(C)C=CC(=O)C=C12` [METHYLPREDNISOLONE], the 50% inhibitory concentration (IC50) entry (in experiment [1]; in experiment [2]; against Glycine receptor; in experiment [3]; in experiment [4] (sf9); in experiment [5]) was “Not Active” throughout. Moreover, the IC50 entry in experiment [6] is given as “Not Active”.
Consider `Cc1cccc(C)c1OCC(C)N` (configuration not stated) [MEXILETINE], for which the IC50 result (in experiment [1]; in experiment [2]; at Glycine receptor; in experiment [3]; in experiment [4] (sf9); in experiment [5]) was “Not Active” throughout. In experiment [6], the IC50 result is recorded as “Not Active”.
Turning to `Nc1cc(N2CCCCC2)nc(N)[n+]1[O-]` [MINOXIDIL], the IC50 result (in experiment [1]; in experiment [2]; on Glycine receptor; in experiment [3]; in experiment [4] (sf9); in experiment [5]) was “Not Active” throughout. In addition, in experiment [6], the IC50 entry was “Not Active”.
Take `CO[C@H]1/C=C/O[C@@]2(C)Oc3c(C)c(O)c4c(O)c(c(/C=N/N5CCN(C6CCCC6)CC5)c(O)c4c3C2=O)NC(=O)/C(C)=C\C=C\[C@H](C)[C@H](O)[C@@H](C)[C@@H](O)[C@@H](C)[C@H](OC(C)=O)[C@@H]1C` [RIFAPENTINE]: the IC50 result (in experiment [1]; in experiment [2]; against Glycine receptor; in experiment [3]; in experiment [4] (sf9); in experiment [5]) was “Not Active” each time. The IC50 result in experiment [6] was “Not Active”.
As to `CCCCOc1cc(CC2CNC(=O)N2)ccc1OC` (configuration not stated) [RO-201724], the IC50 result (in experiment [1]; in experiment [2]; on Glycine receptor; in experiment [3]; in experiment [4] (sf9); in experiment [5]) was “Not Active” in each case. Further, in experiment [6], the IC50 result was “Not Active”.
With `CC[C@@H](C(=O)[C@@H](C)[C@@H](O)[C@H](C)[C@@H]1O[C@@H]([C@@H](CC)C(=O)O)CC[C@@H]1C)[C@H]1O[C@]2(C=C[C@@H](O)[C@]3(CC[C@@](C)([C@H]4CC[C@](O)(CC)[C@H](C)O4)O3)O2)[C@H](C)C[C@@H]1C` [SALINOMYCIN], the IC50 entry (in experiment [1]; in experiment [2]; against Glycine receptor; in experiment [3]; in experiment [4] (sf9); in experiment [5]) was “Not Active” in each case. The IC50 entry in experiment [6] is recorded as “Not Active”.
On to `O=C(Oc1ccccc1C(=O)O)c1ccccc1O` [SALSALATE], for which the IC50 result (in experiment [1]; in experiment [2]; against Glycine receptor; in experiment [3]; in experiment [4] (sf9); in experiment [5]) was “Not Active” throughout. The IC50 result in experiment [6] is given as “Not Active”.
Regarding `O=C(O)c1cn(-c2ccc(F)cc2)c2cc(N3CCNCC3)c(F)cc2c1=O` [SARAFLOXACIN], the IC50 entry (in experiment [1]; in experiment [2]; on Glycine receptor; in experiment [3]; in experiment [4] (sf9); in experiment [5]) was “Not Active” each time. Besides, the IC50 entry in experiment [6] is listed as “Not Active”.
`CC(C)NCC(O)c1ccc(NS(C)(=O)=O)cc1` (configuration not stated) [SOTALOL]: the IC50 result (in experiment [1]; in experiment [2]; at Glycine receptor; in experiment [3]; in experiment [4] (sf9); in experiment [5]) was “Not Active” each time. Besides, in experiment [6], the IC50 entry is “Not Active”.
Consider `O.O.O.O.O.O.[Cl-].[Cl-].[Sr+2]` [STRONTIUM CHLORIDE HEXAHYDRATE], for which the IC50 result (in experiment [1]; in experiment [2]; against Glycine receptor; in experiment [3]; in experiment [4] (sf9); in experiment [5]) was “Not Active” each time. Moreover, the IC50 result in experiment [6] is “Not Active”.

Usually IC50 stands for the point on the concentration scale where inhibition reaches its midpoint. A word on the Ki: it is a measure of affinity in units of concentration, obtained from inhibition or displacement.
